According to US20230017045A1, “PYRIDINE AND PYRIMIDINE CARBOXYLATE HERBICIDES AND METHODS OF USE THEREOF” (Dow AgroSciences LLC, priority 2017, published 2023):

System: test plant species
Experiment: Post-emergent herbicidal activity test (greenhouse, foliar spray, visual growth reduction)
Format: in vivo
Settings: post-emergence, 336 h, ALOMY: blackgrass (Alopecurus myosuroides), 140 g ai/ha, 14 days after application, read-out: Visual Growth Reduction (%) 14 Days After Application, ALOMY
Description: Post-emergent Test: Seeds or nutlets of the desired test plant species were planted in Sun Gro Metro-Mix® 360 planting mixture, which typically has a pH of 6.0 to 6.8 and an organic matter content of about 30 percent, in plastic pots with a surface area of 64 square centimeters. In some aspects, to ensure good germination and healthy plants, a fungicide treatment and/or other chemical or physical treatment was applied. The plants were grown for 7-21 d in a greenhouse with an approximate 15 h photoperiod which was maintained at 23-29° C. during the day and 22-28° C. during the night. Nutrients and water were added on a regular basis and supplemental lighting was provided with overhead metal halide 1000-Watt lamps as necessary. Plants were used for testing when they reached the first or second true leaf stage. A weighed amount, determined by the highest rate to be tested, of each test compound was placed in a 25 mL glass vial and was dissolved in 4 mL of a 97:3 v/v mixture of acetone and DMSO to obtain concentrated stock solutions. […] The concentrated stock solutions obtained were diluted with 20 mL of an aqueous mixture containing acetone, water, isopropyl alcohol, DMSO, […] crop oil concentrate, and X-77 surfactant in a 48.5:39:10:1.5:1.0:0.02 v/v ratio to obtain spray solutions containing the application rate. Compound requirements are based upon a 12 mL application volume at a rate of 187 liters per hectare (L/ha). Formulated compounds were applied to the plant material with an overhead Mandel track sprayer equipped with […] nozzles calibrated to deliver 187 L/ha over an application area of 0.64 square meters at a spray height of 18 inches (43 cm) above the average plant canopy height. Control plants were sprayed in the same manner with the solvent blank. The treated plants and control plants were placed in a greenhouse as described above and watered by subirrigation to prevent wash-off of the test compounds. After 14 d, the condition of the test plants as compared with that of the nontreated and control plants was determined visually and scored on a scale of 0 to 100 percent where 0 corresponds to no injury and 100 corresponds to complete control. In the reporting of the results, Table A: Percent Growth Reduction Conversion Table was used.

Compound	pest or weed control at 140 g/ha [%]
COC(=O)c1nc(-c2ccc(Cl)c(OC)c2F)c(F)c(Cl)c1Cl [F74, Methyl 3,4-dichloro-6-(4-chloro-2-fluoro-3-methoxyphenyl)-5-fluoropicolinate]	0 to 29
COC(=O)c1nc(-c2ccc(C(F)(F)F)nc2)c(Cl)cc1Cl [F99, methyl 3,5-dichloro-6′-(trifluoromethyl)-[2,3′-bipyridine]-6-carboxylate]	0 to 29

Same assay, conditions: post-emergence, 336 h, AMARE: redroot pigweed (Amaranthus retroflexus), 140 g ai/ha, 14 days after application, read-out: Visual Growth Reduction (%) 14 Days After Application, AMARE

Compound	pest or weed control at 140 g/ha [%]
COC(=O)c1nc(-c2ccc(Cl)c(OC)c2F)c(F)c(Cl)c1Cl [F74, Methyl 3,4-dichloro-6-(4-chloro-2-fluoro-3-methoxyphenyl)-5-fluoropicolinate]	0 to 29
COC(=O)c1nc(-c2ccc(C(F)(F)F)nc2)c(Cl)cc1Cl [F99, methyl 3,5-dichloro-6′-(trifluoromethyl)-[2,3′-bipyridine]-6-carboxylate]	0 to 29

Same assay, conditions: post-emergence, 336 h, AVEFA: wild oat (Avena fatua), 140 g ai/ha, 14 days after application, read-out: Visual Growth Reduction (%) 14 Days After Application, AVEFA

Compound	pest or weed control at 140 g/ha [%]
COC(=O)c1nc(-c2ccc(Cl)c(OC)c2F)c(F)c(Cl)c1Cl [F74, Methyl 3,4-dichloro-6-(4-chloro-2-fluoro-3-methoxyphenyl)-5-fluoropicolinate]	0 to 29
COC(=O)c1nc(-c2ccc(C(F)(F)F)nc2)c(Cl)cc1Cl [F99, methyl 3,5-dichloro-6′-(trifluoromethyl)-[2,3′-bipyridine]-6-carboxylate]	0 to 29

Same assay, conditions: post-emergence, 336 h, CHEAL: lambsquarters (Chenopodium album), 140 g ai/ha, 14 days after application, read-out: Visual Growth Reduction (%) 14 Days After Application, CHEAL

Compound	pest or weed control at 140 g/ha [%]
COC(=O)c1nc(-c2ccc(Cl)c(OC)c2F)c(F)c(Cl)c1Cl [F74, Methyl 3,4-dichloro-6-(4-chloro-2-fluoro-3-methoxyphenyl)-5-fluoropicolinate]	30 to 44
COC(=O)c1nc(-c2ccc(C(F)(F)F)nc2)c(Cl)cc1Cl [F99, methyl 3,5-dichloro-6′-(trifluoromethyl)-[2,3′-bipyridine]-6-carboxylate]	0 to 29

Same assay, conditions: post-emergence, 336 h, CIRAR: canada thistle (Cirsium arvense), 140 g ai/ha, 14 days after application, read-out: Visual Growth Reduction (%) 14 Days After Application, CIRAR

Compound	pest or weed control at 140 g/ha [%]
COC(=O)c1nc(-c2ccc(Cl)c(OC)c2F)c(F)c(Cl)c1Cl [F74, Methyl 3,4-dichloro-6-(4-chloro-2-fluoro-3-methoxyphenyl)-5-fluoropicolinate]	0 to 29
COC(=O)c1nc(-c2ccc(C(F)(F)F)nc2)c(Cl)cc1Cl [F99, methyl 3,5-dichloro-6′-(trifluoromethyl)-[2,3′-bipyridine]-6-carboxylate]	0 to 29

Same assay, conditions: post-emergence, 336 h, CYPES: yellow nutsedge (Cyperus esculentus), 140 g ai/ha, 14 days after application, read-out: Visual Growth Reduction (%) 14 Days After Application, CYPES

Compound	pest or weed control at 140 g/ha [%]
COC(=O)c1nc(-c2ccc(Cl)c(OC)c2F)c(F)c(Cl)c1Cl [F74, Methyl 3,4-dichloro-6-(4-chloro-2-fluoro-3-methoxyphenyl)-5-fluoropicolinate]	0 to 29
COC(=O)c1nc(-c2ccc(C(F)(F)F)nc2)c(Cl)cc1Cl [F99, methyl 3,5-dichloro-6′-(trifluoromethyl)-[2,3′-bipyridine]-6-carboxylate]	0 to 29

Same assay, conditions: post-emergence, 336 h, DIGSA: crabgrass (Digitaria sanguinalis), 140 g ai/ha, 14 days after application, read-out: Visual Growth Reduction (%) 14 Days After Application, DIGSA

Compound	pest or weed control at 140 g/ha [%]
COC(=O)c1nc(-c2ccc(Cl)c(OC)c2F)c(F)c(Cl)c1Cl [F74, Methyl 3,4-dichloro-6-(4-chloro-2-fluoro-3-methoxyphenyl)-5-fluoropicolinate]	0 to 29
COC(=O)c1nc(-c2ccc(C(F)(F)F)nc2)c(Cl)cc1Cl [F99, methyl 3,5-dichloro-6′-(trifluoromethyl)-[2,3′-bipyridine]-6-carboxylate]	0 to 29

Same assay, conditions: post-emergence, 336 h, ECHCG: barnyardgrass (Echinochloa crus-galli), 140 g ai/ha, 14 days after application, read-out: Visual Growth Reduction (%) 14 Days After Application, ECHCG

Compound	pest or weed control at 140 g/ha [%]
COC(=O)c1nc(-c2ccc(Cl)c(OC)c2F)c(F)c(Cl)c1Cl [F74, Methyl 3,4-dichloro-6-(4-chloro-2-fluoro-3-methoxyphenyl)-5-fluoropicolinate]	0 to 29
COC(=O)c1nc(-c2ccc(C(F)(F)F)nc2)c(Cl)cc1Cl [F99, methyl 3,5-dichloro-6′-(trifluoromethyl)-[2,3′-bipyridine]-6-carboxylate]	0 to 29

Same assay, conditions: post-emergence, 336 h, IPOHE: ivy-leaf morning glory (Ipomoea hederacea), 140 g ai/ha, 14 days after application, read-out: Visual Growth Reduction (%) 14 Days After Application, IPOHE

Compound	pest or weed control at 140 g/ha [%]
COC(=O)c1nc(-c2ccc(Cl)c(OC)c2F)c(F)c(Cl)c1Cl [F74, Methyl 3,4-dichloro-6-(4-chloro-2-fluoro-3-methoxyphenyl)-5-fluoropicolinate]	0 to 29
COC(=O)c1nc(-c2ccc(C(F)(F)F)nc2)c(Cl)cc1Cl [F99, methyl 3,5-dichloro-6′-(trifluoromethyl)-[2,3′-bipyridine]-6-carboxylate]	0 to 29

Same assay, conditions: post-emergence, 336 h, KCHSC: kochia (Bassia scoparia), 140 g ai/ha, 14 days after application, read-out: Visual Growth Reduction (%) 14 Days After Application, KCHSC

Compound	pest or weed control at 140 g/ha [%]
COC(=O)c1nc(-c2ccc(C(F)(F)F)nc2)c(Cl)cc1Cl [F99, methyl 3,5-dichloro-6′-(trifluoromethyl)-[2,3′-bipyridine]-6-carboxylate]	0 to 29

Same assay, conditions: post-emergence, 336 h, ORYSA: rice (Oryza sativa), 140 g ai/ha, 14 days after application, read-out: Visual Growth Reduction (%) 14 Days After Application, ORYSA

Compound	pest or weed control at 140 g/ha [%]
COC(=O)c1nc(-c2ccc(Cl)c(OC)c2F)c(F)c(Cl)c1Cl [F74, Methyl 3,4-dichloro-6-(4-chloro-2-fluoro-3-methoxyphenyl)-5-fluoropicolinate]	0 to 29
COC(=O)c1nc(-c2ccc(C(F)(F)F)nc2)c(Cl)cc1Cl [F99, methyl 3,5-dichloro-6′-(trifluoromethyl)-[2,3′-bipyridine]-6-carboxylate]	0 to 29

Same assay, conditions: post-emergence, 336 h, SETFA: giant foxtail (Setaria faberi), 140 g ai/ha, 14 days after application, read-out: Visual Growth Reduction (%) 14 Days After Application, SETFA

Compound	pest or weed control at 140 g/ha [%]
COC(=O)c1nc(-c2ccc(Cl)c(OC)c2F)c(F)c(Cl)c1Cl [F74, Methyl 3,4-dichloro-6-(4-chloro-2-fluoro-3-methoxyphenyl)-5-fluoropicolinate]	0 to 29
COC(=O)c1nc(-c2ccc(C(F)(F)F)nc2)c(Cl)cc1Cl [F99, methyl 3,5-dichloro-6′-(trifluoromethyl)-[2,3′-bipyridine]-6-carboxylate]	0 to 29

Same assay, conditions: post-emergence, 336 h, SORVU: grain sorghum (Sorghum vulgare), 140 g ai/ha, 14 days after application, read-out: Visual Growth Reduction (%) 14 Days After Application, SORVU

Compound	pest or weed control at 140 g/ha [%]
COC(=O)c1nc(-c2ccc(Cl)c(OC)c2F)c(F)c(Cl)c1Cl [F74, Methyl 3,4-dichloro-6-(4-chloro-2-fluoro-3-methoxyphenyl)-5-fluoropicolinate]	0 to 29
COC(=O)c1nc(-c2ccc(C(F)(F)F)nc2)c(Cl)cc1Cl [F99, methyl 3,5-dichloro-6′-(trifluoromethyl)-[2,3′-bipyridine]-6-carboxylate]	0 to 29

Same assay, conditions: post-emergence, 336 h, STEME: common chickweed (Stellaria media), 140 g ai/ha, 14 days after application, read-out: Visual Growth Reduction (%) 14 Days After Application, STEME

Compound	pest or weed control at 140 g/ha [%]
COC(=O)c1nc(-c2ccc(Cl)c(OC)c2F)c(F)c(Cl)c1Cl [F74, Methyl 3,4-dichloro-6-(4-chloro-2-fluoro-3-methoxyphenyl)-5-fluoropicolinate]	0 to 29
COC(=O)c1nc(-c2ccc(C(F)(F)F)nc2)c(Cl)cc1Cl [F99, methyl 3,5-dichloro-6′-(trifluoromethyl)-[2,3′-bipyridine]-6-carboxylate]	0 to 29

Same assay, conditions: post-emergence, 336 h, TRZAS: wheat, spring (Triticum aestivum), 140 g ai/ha, 14 days after application, read-out: Visual Growth Reduction (%) 14 Days After Application, TRZAS

Compound	pest or weed control at 140 g/ha [%]
COC(=O)c1nc(-c2ccc(Cl)c(OC)c2F)c(F)c(Cl)c1Cl [F74, Methyl 3,4-dichloro-6-(4-chloro-2-fluoro-3-methoxyphenyl)-5-fluoropicolinate]	0 to 29
COC(=O)c1nc(-c2ccc(C(F)(F)F)nc2)c(Cl)cc1Cl [F99, methyl 3,5-dichloro-6′-(trifluoromethyl)-[2,3′-bipyridine]-6-carboxylate]	0 to 29
